Assay results: patent US20240391862A1, “(1,4,5-TRISUBSTITUTED-1H-PYRAZOL-3-YL)OXY-2-ALKOXY ALKYL ACIDS AND THEIR DERIVATIVES, THEIR SALTS AND THEIR USE AS HERBICIDAL AGENTS” (Bayer AKtiengesellschaft, priority 2021, published 2024)

Key:
[1] = tested on: ZEAMX; assay: Pre-emergence herbicidal effect and crop plant compatibility, greenhouse pot test; format: in vivo, Zea mays; settings: 80 g/ha, scored visually after about 3 weeks vs untreated controls
Method in brief: (§1)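 Greenhouse pots with freshly sown seeds receive a soil-surface treatment of 20 to 320 g/ha compound, formulated as WP or EC with 0.5% additive at 600 l/ha. Activity is expressed as visually estimated percent effect versus untreated plants after about 3 weeks, where 100% means the plants died.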

[2] = tested on: ALOMY; assay: Post-emergence herbicidal effect, greenhouse pot test; format: in vivo, Alopecurus myosuroides; settings: Alopecurus myosuroides, 504 h, visual rating about 3 weeks after treatment, read-out: Post-emergence effect against ALOMY
Method in brief: (§2)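 Greenhouse pot plants in sandy loam receive a one-leaf-stage spray at 20 to 320 g/ha. Activity is assessed visually around 3 weeks afterwards on a 0–100% scale, where 100% means the plants have died.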

[3] = tested on: SETVI; assay: as above; format: in vivo, Setaria viridis; settings: Setaria viridis, 504 h, read-out: Post-emergence effect against SETVI in %
Method in brief: as §2

[4] = tested on: ECHCG; assay: Pre-emergence herbicidal effect, greenhouse pot test; format: in vivo, Echinochloa crus-galli; settings: scored visually after about 3 weeks vs untreated controls; for pest or weed control at 320 g/ha: Echinochloa crus-galli, 504 h, read-out: Pre-emergence effect at 320 g/ha against ECHCG in %
Method in brief: as §1

[5] = tested on: LOLRI; assay: Post-emergence herbicidal effect, greenhouse pot test; format: in vivo, Lolium rigidum; settings: Lolium rigidum, 504 h, read-out: Post-emergence effect against LOLRI in %
Method in brief: as §2

[6] = tested on: AMARE; assay: Pre-emergence herbicidal effect, greenhouse pot test; format: in vivo, Amaranthus retroflexus; settings: scored visually after about 3 weeks vs untreated controls; for pest or weed control at 320 g/ha: Amaranthus retroflexus, 504 h, read-out: Pre-emergence effect at 320 g/ha against AMARE in %
Method in brief: as §1

[7] = tested on: VIOTR; assay: Post-emergence herbicidal effect, greenhouse pot test; format: in vivo, Viola tricolor; settings: Viola tricolor, 504 h, read-out: Post-emergence effect against VIOTR in %
Method in brief: as §2

[8] = tested on: AMARE; assay: as above; format: in vivo, Amaranthus retroflexus; settings: Amaranthus retroflexus, 504 h, visual rating about 3 weeks after treatment, read-out: Post-emergence effect against AMARE
Method in brief: as §2

[9] = tested on: POLCO; assay: Pre-emergence herbicidal effect, greenhouse pot test; format: in vivo, Fallopia convolvulus; settings: scored visually after about 3 weeks vs untreated controls; for pest or weed control at 320 g/ha: Fallopia convolvulus, 504 h, read-out: Pre-emergence effect at 320 g/ha against POLCO in %
Method in brief: as §1

[10] = tested on: PHBPU; assay: Post-emergence herbicidal effect, greenhouse pot test; format: in vivo, Ipomoea purpurea; settings: Ipomoea purpurea, 504 h, read-out: Post-emergence effect against PHBPU in %
Method in brief: as §2

[11] = tested on: ECHCG; assay: as above; format: in vivo, Echinochloa crus-galli; settings: Echinochloa crus-galli, 504 h, read-out: Post-emergence effect against ECHCG in %
Method in brief: as §2

[12] = tested on: AVEFA; assay: as above; format: in vivo, Avena fatua; settings: Avena fatua, 504 h, visual rating about 3 weeks after treatment, read-out: Post-emergence effect against AVEFA
Method in brief: as §2

[13] = tested on: MATIN; assay: Pre-emergence herbicidal effect, greenhouse pot test; format: in vivo, Tripleurospermum inodorum; settings: scored visually after about 3 weeks vs untreated controls; for pest or weed control at 320 g/ha: Tripleurospermum inodorum, 504 h, read-out: Pre-emergence effect at 320 g/ha against MATIN in %
Method in brief: as §1

[14] = tested on: LOLRI; assay: as above; format: in vivo, Lolium rigidum; settings: scored visually after about 3 weeks vs untreated controls
Method in brief: as §1

[15] = tested on: ALOMY; assay: as above; format: in vivo, Alopecurus myosuroides; settings: scored visually after about 3 weeks vs untreated controls
Method in brief: as §1

[16] = tested on: VERPE; assay: Post-emergence herbicidal effect, greenhouse pot test; format: in vivo, Veronica persica; settings: Veronica persica, 504 h, read-out: Post-emergence effect against VERPE in %
Method in brief: as §2

[17] = tested on: SETVI; assay: Pre-emergence herbicidal effect, greenhouse pot test; format: in vivo, Setaria viridis; settings: scored visually after about 3 weeks vs untreated controls; for pest or weed control at 320 g/ha: Setaria viridis, 504 h, read-out: Pre-emergence effect at 320 g/ha against SETVI in %
Method in brief: as §1

[18] = tested on: MATIN; assay: Post-emergence herbicidal effect, greenhouse pot test; format: in vivo, Tripleurospermum inodorum; settings: Tripleurospermum inodorum, 504 h, read-out: Post-emergence effect against MATIN in %
Method in brief: as §2

[19] = tested on: ABUTH; assay: as above; format: in vivo, Abutilon theophrasti; settings: Abutilon theophrasti, 504 h, visual rating about 3 weeks after treatment, read-out: Post-emergence effect against ABUTH
Method in brief: as §2

Compound	Pre-emergence effect at 80 g/ha against ZEAMX in % [1] [%]	pest or weed control at 80 g/ha [2] [%]	pest or weed control at 320 g/ha [2] [%]	pest or weed control at 80 g/ha [3] [%]	pest or weed control at 320 g/ha [3] [%]	pest or weed control at 320 g/ha [4] [%]	pest or weed control at 320 g/ha [5] [%]	pest or weed control at 320 g/ha [6] [%]	pest or weed control at 320 g/ha [7] [%]	pest or weed control at 320 g/ha [8] [%]	pest or weed control at 320 g/ha [9] [%]	pest or weed control at 320 g/ha [10] [%]	pest or weed control at 320 g/ha [11] [%]	pest or weed control at 320 g/ha [12] [%]	pest or weed control at 320 g/ha [13] [%]	Pre-emergence effect at 320 g/ha against LOLRI in % [14] [%]	Pre-emergence effect at 320 g/ha against ALOMY in % [15] [%]	pest or weed control at 320 g/ha [16] [%]	pest or weed control at 320 g/ha [17] [%]	pest or weed control at 320 g/ha [18] [%]	other results
CCOC(=O)C(OCC)Oc1nn(-c2ccccc2F)c(-c2ccc(F)nc2)c1Br (racemic) [Example I-01, Ethyl (2RS)-{[4-bromo-1-(2-fluorophenyl)-5-(6-fluoropyridin-3-yl)-1H-pyrazol-3-yl]oxy}(ethoxy)acetate]	0	90	100	90	90	100	90	100	90	90	90	90	90	90	90	100	90	90	100	90	Pre-emergence effect at 80 g/ha against AMARE in % [6]: 80%; pest or weed control at 80 g/ha [7]: 80%; pest or weed control at 80 g/ha ([8]; 80 g/ha): 80%; Pre-emergence effect at 80 g/ha against POLCO in % [9]: 80%; pest or weed control at 80 g/ha [10]: 90%; pest or weed control at 80 g/ha [11]: 90%; Pre-emergence effect at 80 g/ha against MATIN in % ([13]; 80 g/ha): 90%; Pre-emergence effect at 80 g/ha against LOLRI in % ([14]; 80 g/ha): 90%; pest or weed control at 80 g/ha [16]: 80%; pest or weed control at 80 g/ha [18]: 80%; pest or weed control at 80 g/ha ([19]; 80 g/ha): 80%; pest or weed control at 320 g/ha [19]: 90%
COC(=O)C(OC)Oc1nn(-c2ccccc2F)c(-c2ccc(F)nc2)c1Br (racemic) [Example I-04, Methyl (2RS)-{[4-bromo-1-(2-fluorophenyl)-5-(6-fluoropyridin-3-yl)-1H-pyrazol-3-yl]oxy}(methoxy)acetate]	0	90	90	80	80	100	80	100	80	90	90	80	80	90	90	100	90	90	100	80	Pre-emergence effect at 80 g/ha against ECHCG in % ([4]; 80 g/ha): 80%; pest or weed control at 80 g/ha [5]: 80%; Pre-emergence effect at 80 g/ha against AMARE in % [6]: 80%; pest or weed control at 80 g/ha [7]: 80%; Pre-emergence effect at 80 g/ha against POLCO in % [9]: 80%; pest or weed control at 80 g/ha [10]: 80%; pest or weed control at 80 g/ha [11]: 80%; pest or weed control at 80 g/ha [12]: 80%; Pre-emergence effect at 80 g/ha against ALOMY in % ([15]; 80 g/ha): 80%; pest or weed control at 80 g/ha [16]: 90%; Pre-emergence effect at 80 g/ha against SETVI in % ([17]; 80 g/ha): 80%; pest or weed control at 80 g/ha [18]: 80%; pest or weed control at 320 g/ha [19]: 80%
COC(=O)C(OC)Oc1nn(-c2ncccc2F)c(-c2ccc(F)nc2)c1Br (stereo not drawn) [Example I-05]	20	90	90	80	80	90	90	90	80	80	90	90	80	80	90	100	90	80	100	80	pest or weed control at 80 g/ha [5]: 80%; pest or weed control at 80 g/ha [12]: 80%
